Laboratory results taken from patent US10196363B2, “Dihydropyrimidin-2-one compounds and medical use thereof” (JAPAN TOBACCO INC., priority 2014, dated 2019).
Read-outs that look alike come from different tables or passages of the source.

Experiments:
mouse RORγ = target: T1, mouse RORγ (Mus musculus, UniProt P51450); test: In vitro assay of inhibitory effect against RORγ transcriptional activity (GAL4-mRORγ LBD luciferase reporter gene assay in CHO cells); format: cell-based; settings: for mRORγ luciferase activity, %-of-control: vehicle-control 0.2% DMSO alone = 100%
T1 construct: mouse RORγ, from Ile251 to Lys516; expressed in transfected cells; host or cells: CHO cells (Chinese hamster ovary), transient co-transfection with pG5-Luc
T1 sequence (P51450 251-516): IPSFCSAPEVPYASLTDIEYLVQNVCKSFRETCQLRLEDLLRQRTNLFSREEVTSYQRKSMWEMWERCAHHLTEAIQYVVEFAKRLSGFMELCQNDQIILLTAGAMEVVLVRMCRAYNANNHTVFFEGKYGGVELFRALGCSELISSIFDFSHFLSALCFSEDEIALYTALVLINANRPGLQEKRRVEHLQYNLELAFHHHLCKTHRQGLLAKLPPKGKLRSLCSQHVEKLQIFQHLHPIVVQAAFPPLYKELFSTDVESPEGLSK
Method in brief: (§1)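 Transcriptional activity of human or mouse RORγ LBD, tethered to the GAL4 DNA-binding domain, is monitored by a GAL4-dependent firefly luciferase reporter in transiently transfected CHO cells. Test articles are incubated for 2 days; values are %-of-control or fitted EC50.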

human RORγ = target: T2, human RORγ (Homo sapiens, UniProt P51449); test: In vitro assay of inhibitory effect against RORγ transcriptional activity (GAL4-hRORγ LBD luciferase reporter gene assay in CHO cells); format: cell-based; settings: for hRORγ luciferase activity, %-of-control: vehicle-control 0.2% DMSO alone = 100%
T2 construct: human RORγ, from Ser253 to Lys518; expressed in transfected cells; host or cells: CHO cells (Chinese hamster ovary), transient co-transfection with pG5-Luc
T2 sequence (P51449 253-518): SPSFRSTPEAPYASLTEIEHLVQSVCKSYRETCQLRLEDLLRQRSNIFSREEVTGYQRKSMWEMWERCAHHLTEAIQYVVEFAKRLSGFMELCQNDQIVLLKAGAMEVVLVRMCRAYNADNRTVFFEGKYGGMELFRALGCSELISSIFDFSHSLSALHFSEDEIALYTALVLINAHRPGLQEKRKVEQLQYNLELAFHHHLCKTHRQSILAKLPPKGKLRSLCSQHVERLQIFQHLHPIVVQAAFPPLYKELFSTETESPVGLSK
Method in brief: as §1

[1] = GAL4-mRORγ LBD / pG5-Luc in CHO cells, 2 days incubation
[2] = GAL4-hRORγ LBD / pG5-Luc in CHO cells, 2 days incubation
[3] = GAL4-mRORγ LBD luciferase reporter, CHO cells, read-out: LUC EC50 mRORγ
[4] = GAL4-hRORγ LBD luciferase reporter, CHO cells, read-out: LUC EC50 hRORγ
[5] = value in parentheses beside the > EC50 bound
[6] = value in parentheses beside the EC50 bound

Row | Compound | EC50 (mouse RORγ; [1]) | EC50 (human RORγ; [2]) | EC50 (mouse RORγ; [3]) | EC50 (human RORγ; [4]) | other results
1 | CC(C)C1=CN(CCC(C)C(=O)O)C(=O)NC1(C)c1ccc(OCC(C)(C)C)c(Cl)c1 (mixture of isomers) [Example 21] | 24 nM | 19 nM |  |  | 
2 | CC(C)C1=CN(CCC(=O)O)C(=O)N[C@@]1(C)c1ccc(C2=CCC(C)(C)CC2)c(Cl)c1 [Example 116, 3-{(S)-4-[3-chloro-4-(4,4-dimethyl-cyclohex-1-enyl)-phenyl]-5-isopropyl-4-methyl-2-oxo-3,4-dihydro-2H-pyrimidin-1-yl}-propionic Acid] | 22 nM | 15 nM |  |  | 
3 | CC(C)C1=CN([C@H]2CC[C@@H](C(=O)O)CC2)C(=O)N[C@@]1(C)c1ccc(CCC(C)(C)C)c(Cl)c1 [Example 67] | 17 nM | 23 nM |  |  | 
4 | CC(C)C1=CN(CCCCC(=O)O)C(=O)N[C@@]1(C)c1ccc(CCC(C)(C)C)c(Cl)c1 [Example 48] | 16 nM | 12 nM |  |  | 
5 | CC(C)C1=CN([C@H]2C[C@](C)(C(=O)O)C2)C(=O)N[C@]1(C)c1ccc(CCC(C)(C)C)c(Cl)c1 [Example 111] | 481 nM | 405 nM |  |  | 
6 | CC(C)C1=CN(C[C@H]2C[C@H](C(=O)O)C2)C(=O)NC1(C)c1ccc(CCC(C)(C)C)c(Cl)c1 (mixture of isomers) [Example 80] | 17 nM | 16 nM |  |  | 
7 | CC(C)C1=CN(CCC(=O)O)C(=O)N[C@]1(C)c1ccc(CCCC(F)(F)F)c(Cl)c1 [Example 128] | > 20000 nM | > 20000 nM |  |  | mRORγ luciferase activity, %-of-control (mouse RORγ; [5]): (54%); hRORγ luciferase activity, %-of-control (human RORγ; [5]): (66%)
8 | CC(C)C1=CN(CCC(=O)O)C(=O)N[C@]1(C)c1ccc(C2=CCCCC2)c(Cl)c1 [Example 133] | > 8000 nM | > 8000 nM |  |  | mRORγ luciferase activity, %-of-control (mouse RORγ; [5]): (88%); hRORγ luciferase activity, %-of-control (human RORγ; [5]): (71%)
9 | CC(C)(C)CCc1ccc(C2NC(=O)N(CCCC(=O)O)C=C2C(C)(C)C)cc1Cl (single isomer, unassigned) [Example 10] | 17 nM | 9 nM |  |  | 
10 | CC(C)(C)CCc1ccc(C2NC(=O)N(CCCC(=O)O)C=C2C(C)(C)C)cc1Cl (single isomer, unassigned) [Example 11] | > 8000 nM | > 8000 nM |  |  | mRORγ luciferase activity, %-of-control (mouse RORγ; [5]): (79%); hRORγ luciferase activity, %-of-control (human RORγ; [5]): (87%)
11 | CC(C)(C)COc1ccc(C2NC(=O)NC=C2C2CC(C(=O)O)C2)cc1Cl (racemic) [Example 62] | 520 nM | 665 nM |  |  | 
12 | CC(C)CCc1ccc(C2(C)NC(=O)N(CCCC(=O)O)C=C2C(C)C)cc1Cl (racemic) [Example 27] | 16 nM | 25 nM |  |  | 
13 | CC(C)CC1=CN(CCCC(=O)O)C(=O)N[C@@]1(C)c1ccc(CCC(C)(C)C)c(Cl)c1 [Example 38] | 15 nM | 11 nM |  |  | 
14 | CC(C)C1=CN(CCC(=O)O)C(=O)N[C@@]1(C)c1ccc(CCCC(F)(F)F)c(Cl)c1 [Example 129] | < 32 nM | 47 nM |  |  | 
15 | CC(C)C1=CN([C@H]2C[C@](C)(C(=O)O)C2)C(=O)N[C@@]1(C)c1ccc(CCC(C)(C)C)c(Cl)c1 [Example 112] | 19 nM | 21 nM |  |  | 
16 | CC(C)C1=CN(CC[C@@H](O)C(=O)O)C(=O)N[C@@]1(C)c1ccc(CCC(C)(C)C)c(Cl)c1 [Example 89] | 16 nM | 16 nM |  |  | 
17 | CC(C)C1=CN(C23CC(C(=O)O)(C2)C3)C(=O)N[C@]1(C)c1ccc(CCC(C)(C)C)c(Cl)c1 [Example 76] | 6360 nM | 3470 nM |  |  | 
18 | CC(C)C1=CN([C@H]2C[C@@H](C(=O)O)C2)C(=O)N[C@@]1(C)c1ccc(CCC(C)(C)C)c(Cl)c1 [Example 46] | 16 nM | 17 nM |  |  | 
19 | CC(C)C1=CN(CCC(=O)O)C(=O)N[C@]1(C)c1ccc(CCC2CCC2)c(Cl)c1 [Example 121] | > 8000 nM | > 8000 nM |  |  | mRORγ luciferase activity, %-of-control (mouse RORγ; [5]): (85%); hRORγ luciferase activity, %-of-control (human RORγ; [5]): (62%)

Now from value to compound, other results behind:

Row | EC50 (mouse RORγ; [1]) | EC50 (human RORγ; [2]) | EC50 (mouse RORγ; [3]) | EC50 (human RORγ; [4]) | Compound | other results
20 | 11 nM | 14 nM |  |  | CC(C)C1=CN(CCC(=O)O)C(=O)N[C@@]1(C)c1ccc(C2CC2C(C)C)c(Cl)c1 (single isomer, unassigned) [Example 174] | 
21 |  |  | 22 nM | 16 nM | CC(C)C1=CN(C2CCC(C(=O)O)C2)C(=O)N[C@@]1(C)c1ccc(CCC(C)(C)C)c(Cl)c1 (single isomer, unassigned) [Example 279] | 
22 |  |  | 12 nM | 13 nM | COCCC1=CN(c2ccc(C(=O)O)cn2)C(=O)N[C@@]1(C)c1ccc(CC2CCCCC2)c(Cl)c1 [Example 338] | 
23 | 14 nM | 12 nM |  |  | CC(C)(C)CCc1ccc(C2(C)NC(=O)N(CCC(=O)O)C=C2C2(C)CC2)cc1Cl (single isomer, unassigned) [Example 171] | 
24 | 139 nM | 209 nM |  |  | CC(C)C1=CN(CCC(=O)O)C(=O)N[C@@]1(C)c1ccc(OCCC(F)(F)F)c(Cl)c1 [Example 140] | 
25 | 12 nM | 21 nM |  |  | CC(C)CCOc1ccc([C@]2(C)NC(=O)N(CCC(=O)O)C=C2C(C)C)cc1Cl [Example 150] | 
26 | 50 nM | 32 nM |  |  | CC(C)(C)CCc1ccc(C2(C)NC(=O)N([C@H]3C[C@H](C(=O)O)C3)C=C2C(C)(C)CCCO)cc1Cl (single isomer, unassigned) [Example 180] | 
27 |  |  | 114 nM | 42 nM | COCC1(N2C=C([C@H]3C[C@@H](C(=O)O)C3)[C@](C)(c3ccc(CCC(C)(C)C)c(Cl)c3)NC2=O)CC1 [Example 250] | 
28 |  |  | 38 nM | 270 nM | CC(C)C1=CN(CCC(=O)O)C(=O)N[C@@]1(C)c1ccc(CC2CCC(C)(C)CC2)c(Cl)c1 [Example 286] | 
29 |  |  | 187 nM | 378 nM | CC(C)C1=CN(CCC(=O)O)C(=O)N[C@@]1(C)c1ccc(CC2CC(F)(F)C2)c(Cl)c1 [Example 282] | 
30 |  |  | 43 nM | 57 nM | CC(C)C1=CN(C(C)(C)CC(=O)O)C(=O)N[C@@]1(C)c1ccc(CCC(C)(C)C)c(Cl)c1 [Example 259] | 
31 | 27 nM | > 512 nM |  |  | CC(C)C1=CN(CCC(=O)O)C(=O)N[C@@]1(C)c1ccc(CCC2CCCCC2)c(Cl)c1 [Example 139] | hRORγ luciferase activity, %-of-control (human RORγ; [5]): (110%)
32 |  |  | 8 nM | 8 nM | COCCC1=CN(C23CCC(C(=O)O)(C2)C3)C(=O)N[C@@]1(C)c1ccc(CCC(C)(C)C)c(Cl)c1 [Example 274] | 
33 |  |  | > 20000 nM | > 20000 nM | CC(C)C1=CN(CCC(=O)O)C(=O)N[C@@]1(C)c1ccc([S+]([O-])C2CCCC2)c(Cl)c1 (mixture of isomers) [Example 223] | mRORγ luciferase activity, %-of-control (mouse RORγ; [6]): (70%); hRORγ luciferase activity, %-of-control (human RORγ; [6]): (78%)
34 |  |  | 27 nM | 63 nM | COCC(C)C1=CN(CCC(=O)O)C(=O)N[C@@]1(C)c1ccc(CCC(C)(C)C)c(Cl)c1 (single isomer, unassigned) [Example 306] | 
35 |  |  | 11 nM | 4 nM | COCC(C)C1=CN(C23CCC(C(=O)O)(C2)C3)C(=O)N[C@@]1(C)c1ccc(CCC(C)(C)C)c(Cl)c1 (single isomer, unassigned) [Example 351] | 
36 | 14 nM | 9 nM |  |  | CC(C)C1=CN(CCC(=O)O)C(=O)N[C@@]1(C)c1ccc(CCC(C)(C)C(F)(F)F)c(Cl)c1 [Example 185] | 
37 | 27 nM | 70 nM |  |  | CC(C)C1=CN(CCC(=O)O)C(=O)N[C@@]1(C)c1ccc(C2=CCCCC2)c(Cl)c1 [Example 134] | 
38 | 18 nM | 13 nM |  |  | CC(C)N1C=C(C(C)(C)CCC(=O)O)C(C)(c2ccc(CCC(C)(C)C)c(Cl)c2)NC1=O (single isomer, unassigned) [Example 172] | 
39 |  |  | 51 nM | 60 nM | CC(C)CC1=CN(CCC(=O)O)C(=O)N[C@@]1(C)c1ccc(OCC(C)(C)C)c(Cl)c1F [Example 201] | 
40 |  |  | 7 nM | 10 nM | COCCC1=CN(c2ccc(C(=O)O)cc2)C(=O)N[C@@]1(C)c1ccc(CC2CCCCC2)c(Cl)c1 [Example 336] | 
41 |  |  | 23 nM | 14 nM | CO[C@H]1C[C@H](N2C=C([C@H]3C[C@@H](C(=O)O)C3)[C@](C)(c3ccc(CCC(C)(C)C)c(Cl)c3)NC2=O)C1 [Example 200] | 
42 |  |  | 18 nM | 26 nM | CC(C)C1=CN(CCC(=O)O)C(=O)N[C@@]1(C)c1ccc(CC2CCCC2)c(Cl)c1 [Example 263] | 
43 |  |  | 673 nM | 719 nM | CC(C)C1=CN(C2CN(C(=O)OC(C)(C)C)CC2C(=O)O)C(=O)N[C@@]1(C)c1ccc(CCC(C)(C)C)c(Cl)c1 (single isomer, unassigned) [Example 237] | 
44 |  |  | 11 nM | 26 nM | COCCC1=CN(CCC(=O)O)C(=O)N[C@@]1(C)c1ccc(CC2CCCCC2)c(Cl)c1 [Example 335] | 
